Experimental data published in publication PMC3001460, “FYVE-Dependent Endosomal Targeting of an Arrestin-Related Protein in Amoeba” (PLoS ONE, 2010).

Tests used:
[1] = target: T1, MBP-FYVE (AdcA FYVE domain) (Dictyostelium discoideum, UniProt Q54CH1); assay: intrinsic tryptophan fluorescence titration; type: binding; settings: read-out: affinity
T1 sequence (Q54CH1 458-530): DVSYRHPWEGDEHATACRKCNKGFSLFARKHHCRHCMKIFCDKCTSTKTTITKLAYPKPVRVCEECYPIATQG

ArfA-His6 = target: T2, ArfA-His6 (Dictyostelium discoideum, UniProt O00909 1-182); assay: pull-down; GST-AdcAC on glutathione Sepharose beads, ArfA-His6 preincubated 1 hr at 4°C with 100 µM GDPβS or no extra nucleotide, then overnight at 4°C; 20 mM Tris pH 7.5, 25 mM NaCl, 2 mM DTT, 2 mM EDTA, 2.5 mM MgCl2, 1 mM ATP, 0.2% Triton X-100; Western blot with anti-Arf antibody; settings: both partners purified
T2 construct: Preincubated with 100 µM GDPβS, 100 µM GTPγS or no extra nucleotide before the pull-down; The nucleotide state is told by the assay; also called Dd-ArfA; ADP-ribosylation factor ArfA; source: E. coli BL21(DE3), purified (Ni-NTA agarose); not shown: His6, C-terminal, kept
T2 sequence (O00909 whole entry): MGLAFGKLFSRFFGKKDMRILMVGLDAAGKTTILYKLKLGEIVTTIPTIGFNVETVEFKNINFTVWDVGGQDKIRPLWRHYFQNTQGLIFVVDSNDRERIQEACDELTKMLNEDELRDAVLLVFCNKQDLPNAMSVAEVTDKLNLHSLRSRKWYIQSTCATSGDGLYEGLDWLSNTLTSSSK

Row | Kd [1] [µM] | binding result (ArfA-His6) | Molecule
1 | ~20 | – | O=P(O)(O)O[C@@H]1[C@H](O)[C@H](OP(=O)(O)O)[C@@H](O)[C@H](O)[C@H]1O [Ins(1,3)P2]
2 | – | binds | GST-AdcAC (C domain of the arrestin core of AdcA, amino acids 311 to 459, fused to GST) (domain or fragment, Dictyostelium discoideum, UniProt Q54CH1 311-459, looked up, AdcA (arrestin-domain containing protein A) of Dictyostelium discoideum, whole protein 580 amino acids; C domain of the arrestin core, amino acids 311 to 459, in pGEX-KG; also called GST-AdcC; C-terminal domain of the AdcA arrestin core; not shown: GST, N-terminal, kept) MLTKGKLHVKTWLNKNAYFPGETLVAKMKANNTSIKPTRKISLVVHHTMQLKTRLYHRCITNAIYKQQYDGFQPCFYGKRYLPFSIPVDLKPSSSLGKHITSSYLLELECDIPMAIDLSVTLPLTLFAPQFLYSTVPSQPPGTPLPPDV
